Patent publication US20080113014A1, “Method for Screening for Compounds Safe for Gastric Mucosa” (LTT BIO-PHARMA CO., LTD., priority 2004, published 2008)

What was measured:
gastric mucosal cells = assay: Cytotoxicity of NSAIDs to gastric mucosal cells; format: cell-based; details: order among the five NSAIDs of the same figure (FIG. 3 or FIG. 4)
Description: Specifically, the cytotoxicity of 10 clinically used NSAIDs as measured by the decrease in cell viability (i.e., cytotoxicity due to necrosis/apoptosis as measured by the decrease in cell viability) was compared to their membrane toxicity determined by the liposome model.

[1] = Calcein leakage from liposome in the presence of an NSAID and the gastric mucosa-protecting agent teprenone; details: for calcein leakage from liposome in the presence of NSAID and teprenone: teprenone 0, 10^-7 to 10^-4 M, 30° C., 10 min
Procedure: Teprenone (product name, Selbex (registered trademark)) was used as the gastric mucosa-protecting agent and was used at concentrations of 0 M (Control), 10^−7 M, 10^−6 M, 10^−5 M and 10^−4 M.
Each NSAID and teprenone at respective concentrations were added to the liposome solution obtained in Example 1. Each solution was incubated at 30° C. for 10 min. Subsequently, the fluorescence at 520 nm was measured for each solution to determine the calcein leakage from liposome (i.e., membrane toxicity).

[2] = Calcein leakage from calcein-encapsulating liposome in the presence of NSAIDs (membrane toxicity); details: 30° C., 10 min, fluorescence at 520 nm; order among the five NSAIDs of the same figure

CCc1cccc2c3c([nH]c12)C(CC)(CC(=O)O)OCC3 (stereo not drawn) [etodolac]
cytotoxicity to gastric mucosal cells (rank order) (gastric mucosal cells): celecoxib>mefenamic acid>flufenamic acid>nimesulide>etodolac

O=C(O)Cc1ccccc1Nc1c(Cl)cccc1Cl [diclofenac]
cytotoxicity to gastric mucosal cells (rank order) (gastric mucosal cells): indomethacin>diclofenac>flurbiprofen>ibuprofen>ketoprofen

Cc1cccc(Nc2ccccc2C(=O)O)c1C [mefenamic acid]
cytotoxicity to gastric mucosal cells (rank order) (gastric mucosal cells): celecoxib>mefenamic acid>flufenamic acid>nimesulide>etodolac

CC(C(=O)O)c1ccc(-c2ccccc2)c(F)c1 (stereo not drawn) [flurbiprofen]
cytotoxicity to gastric mucosal cells (rank order) (gastric mucosal cells): indomethacin>diclofenac>flurbiprofen>ibuprofen>ketoprofen

teprenone
calcein leakage from liposome in the presence of NSAID and teprenone (repeat experiment) ([1]; 0.05 mM and 0.1 mM celecoxib): reduced the calcein leakage from the liposome | calcein leakage from liposome in the presence of NSAID and teprenone ([1]; 0.08 mM celecoxib): the calcein leakage decreases as the amount of teprenone is increased | calcein leakage from liposome in the presence of NSAID and teprenone (repeat experiment) ([1]; 2 mM and 10 mM diclofenac): reduced the calcein leakage from the liposome | calcein leakage from liposome in the presence of NSAID and teprenone (repeat experiment) ([1]; 4 mM and 8 mM indomethacin): reduced the calcein leakage from the liposome | calcein leakage from liposome in the presence of NSAID and teprenone ([1]; 4 mM diclofenac): the calcein leakage decreases as the amount of teprenone is increased | calcein leakage from liposome in the presence of NSAID and teprenone ([1]; 6 mM indomethacin): the calcein leakage decreases as the amount of teprenone is increased | calcein leakage from liposome in the presence of NSAID and teprenone ([1]; 20 mM ibuprofen): the calcein leakage decreases as the amount of teprenone is increased | calcein leakage from liposome in the presence of NSAID and teprenone (repeat experiment) ([1]; 40 mM and 60 mM ibuprofen): reduced the calcein leakage from the liposome

COc1ccc2c(c1)c(CC(=O)O)c(C)n2C(=O)c1ccc(Cl)cc1 [indomethacin]
cytotoxicity to gastric mucosal cells (rank order) (gastric mucosal cells): indomethacin>diclofenac>flurbiprofen>ibuprofen>ketoprofen

Cc1ccc(-c2cc(C(F)(F)F)nn2-c2ccc(S(N)(=O)=O)cc2)cc1 [celecoxib]
cytotoxicity to gastric mucosal cells (rank order) (gastric mucosal cells): celecoxib>mefenamic acid>flufenamic acid>nimesulide>etodolac

O=C(O)c1ccccc1Nc1cccc(C(F)(F)F)c1 [flufenamic acid]
calcein leakage from the liposome (membrane toxicity), rank order [2]: decreased in the same order | cytotoxicity to gastric mucosal cells (rank order) (gastric mucosal cells): celecoxib>mefenamic acid>flufenamic acid>nimesulide>etodolac

CS(=O)(=O)Nc1ccc([N+](=O)[O-])cc1Oc1ccccc1 [nimesulide]
cytotoxicity to gastric mucosal cells (rank order) (gastric mucosal cells): celecoxib>mefenamic acid>flufenamic acid>nimesulide>etodolac

CC(C(=O)O)c1cccc(C(=O)c2ccccc2)c1 (stereo not drawn) [ketoprofen]
calcein leakage from the liposome (membrane toxicity), rank order [2]: decreased in the same order
